# Tests used:
# [1] = test system: conscious male chinchilla rabbits; test: haemodynamic effects by telemetry in conscious rabbits; format: in vivo, rabbit; details: stand alone
# Text: In brief, telemetric implants (C50 PXT-DSI®) were used. Signals were received with RMC1-DSI® receiver plates, compiled and analyzied with PONEMAH® physiology platform software.
# [2] = test system: conscious male chinchilla rabbits; test: conscious rabbit ED model, low SNP dose (0.02 mg/kg i.v.), PDE5-resistant ED; format: in vivo
# Procedure: (§1) The conscious rabbit ED model previously described (Bischoff and Schneider 2001) was used for the investigation of Erectile function. In brief: conscious male chinchilla rabbits (3-4 kg) were orally treated with the test compounds or with vehicle via gavage, followed by i.v. injection of the NO-donnor sodium nitro-prusside (SNP) in the ear vein, 90 minutes after oral applications. The SNP injections were done in a high dose setting (0.2 mg/kg SNP i.v) and a low dose setting (0.02 mg/kg SNP i.v.) corresponding to the general ED-population and the PDE5 non-responder ED-population, respectively. Penile length was quantified in 5 minutes intervals after injection of the SNP.
# [3] = test system: involved metabolic enzymes; details: stated as fact; cited from earlier work
# [4] = previous studies; single administration of 2.0 mg BAY 60-4552; cited from earlier work
# [5] = phase I study #14441, pharmacokinetics of co-administration; format: in vivo, human; details: for half-life / Tmax: male, human, plasma, po; for Tmax: read-out: median tmax
# Text: The study was designed as a randomized, single-blind, placebo-controlled, group-comparison, dose-escalation study.
# [6] = test system: conscious male chinchilla rabbits; test: conscious rabbit ED model, high SNP dose (0.2 mg/kg i.v.), general ED population; format: in vivo; details: summary of Example 1; rabbits and rats; in the range of vardenafil
# Procedure: as §1
# The conscious rabbit ED model previously described (Bischoff and Schneider 2001) was used for the investigation of Erectile function as described in Example 1. The SNP injections were done in a high dose setting (0.2 mg/kg SNP i.v) corresponding to the general ED-population in which PDE5 inhibitors are fully active. Penile length was quantified in 5 minutes intervals after injection of the SNP.
# The conscious rabbit ED model as described in Expample 1 and Example 6 was used for assessment of responderrates. […] Penile length was quantified in 5 minutes intervals after injection of the SNP. […]
# rabbits = details: intravenous and oral applications; cited from earlier work
compound,measurement,setting,value
"COC(=O)Nc1c(N)nc(-c2nn(Cc3ccccc3F)c3ncccc23)nc1N [BAY 60-4552, methyl-4,6-diamino-2-[1-(2-fluorobenzyl)-1H-pyrazolo[3,4-b]pyridin-3-yl]-5-pyrimidinylcarbamate]",decrease in mean arterial blood pressure,[1]; 1 mg/kg p.o.,−5 mmHg
same,heart rate increase,[1]; 1 mg/kg p.o.,+24 bpm
same,decrease in blood pressure,[1]; 3 mg/kg,−11 mmHg
same,heart rate increase,[1]; 3 mg/kg,+51 bpm
same,decrease in blood pressure,[1]; 10 mg/kg,−22 mmHg
same,heart rate increase,[1]; 10 mg/kg,+103 bpm
same,penile erection (penile length),"[2]; low SNP 0.02 mg/kg i.v., 3 and 10 mg/kg p.o. stand alone",able to induce physiologically relevant erections
same,inhibitor or inducer of the involved metabolic enzymes,[3],neither vardenafil nor BAY 60-4552 is an inhibitor or inducer
same,effect on heart rate and blood pressure,[4],no clinically relevant effect on heart rate and blood pressure
same,dose proportionality of exposure,[5]; BAY 60-4552 1 mg to 2 mg in combination with vardenafil 2.5 mg to 20 mg,increased in proportion to the dose
same,exposure following concomitant administration versus each compound alone,[5],consistent with historical data
same,time linearity of pharmacokinetics,[5]; in vivo,time linear
same,half-life,[5],13 to 14 h
same,Tmax,[5],0.5 to 1 h
same,"erections, stand alone treatment",[6],significant erections
"CCCc1nc(C)c2c(=O)[nH]c(-c3cc(S(=O)(=O)N4CCN(CC)CC4)ccc3OCC)nn12 [Vardenafil, 2-(2-Ethoxy-5-(4-ethylpiperazin-1-yl-1-sulfonyl)phenyl)-5-methyl-7-propyl-3H-imidazo (5,1-f) (1,2,4)triazin-4-one, reference compound]",decrease in mean arterial blood pressure,[1]; 1 mg/kg p.o.,−4 mmHg
same,heart rate increase,[1]; 1 mg/kg p.o.,+14 bpm
same,dose proportionality of exposure,[5]; 20 mg vardenafil level,slightly higher than proportional exposure
same,exposure following concomitant administration versus each compound alone,[5],consistent with historical data
same,half-life,[5],3 to 5 h
same,Tmax,[5],0.75 to 1 h
same,dose proportionality of AUC and Cmax,[5]; vardenafil 2.5 mg to 10 mg in combination with 1 mg or 2 mg BAY 60-4552,dose-proportional
"CCCc1nn(C)c2c(=O)[nH]c(-c3cc(S(=O)(=O)N4CCN(C)CC4)ccc3OCC)nc12 [Sildenafil, 3-[2-ethoxy-5-(4-methylpiperazin-1-yl)sulfonyl-phenyl]-7-methyl-9-propy 1-2,4,7,8-tetrazabicyclo[4.3.0]nona-3,8,10-trien-5-one, reference compound]",penile erection (penile length),"[2]; rabbit, in vivo",not able to produce any physiologically relevant erection
"COC(=O)N(C)c1c(N)nc(-c2nn(Cc3ccccc3F)c3ncccc23)nc1N [BAY 63-2521, methyl-4,6-diamino-2-[1-(2-fluorobenzyl)-1H-pyrazolo[3,4-b]pyridin-3-yl]-5-pyrimidinyl-(methyl)carbamate]",erections,rabbits,induced stable erections
